According to publication PMC2607046 (Journal of medicinal chemistry, 2008):
Blank lines part the entries; values can stand above or below the compound they belong to.

Legend:
dopamine D2L receptor = dopamine D2L receptor (Rattus norvegicus, UniProt P61169); type: binding
dopamine D3 receptor = dopamine D3 receptor (Rattus norvegicus, UniProt P19020); type: binding
[1] = 35c (spacer length 4) relative to 35a (spacer length 2)

Sequence of dopamine D2L receptor (P61169 whole entry): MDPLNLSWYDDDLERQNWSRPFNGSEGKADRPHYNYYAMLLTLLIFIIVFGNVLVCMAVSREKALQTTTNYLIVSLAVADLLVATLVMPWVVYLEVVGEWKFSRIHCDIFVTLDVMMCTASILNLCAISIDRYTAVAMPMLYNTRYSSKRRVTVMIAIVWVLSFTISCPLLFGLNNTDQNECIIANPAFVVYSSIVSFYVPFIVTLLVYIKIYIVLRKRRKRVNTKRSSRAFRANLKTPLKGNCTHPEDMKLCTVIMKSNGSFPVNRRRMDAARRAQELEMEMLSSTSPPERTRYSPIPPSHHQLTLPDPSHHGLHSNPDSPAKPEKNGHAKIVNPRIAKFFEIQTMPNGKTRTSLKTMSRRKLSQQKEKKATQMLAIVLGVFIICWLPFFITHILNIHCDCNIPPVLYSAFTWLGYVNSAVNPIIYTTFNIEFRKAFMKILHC
Sequence of dopamine D3 receptor (P19020 whole entry): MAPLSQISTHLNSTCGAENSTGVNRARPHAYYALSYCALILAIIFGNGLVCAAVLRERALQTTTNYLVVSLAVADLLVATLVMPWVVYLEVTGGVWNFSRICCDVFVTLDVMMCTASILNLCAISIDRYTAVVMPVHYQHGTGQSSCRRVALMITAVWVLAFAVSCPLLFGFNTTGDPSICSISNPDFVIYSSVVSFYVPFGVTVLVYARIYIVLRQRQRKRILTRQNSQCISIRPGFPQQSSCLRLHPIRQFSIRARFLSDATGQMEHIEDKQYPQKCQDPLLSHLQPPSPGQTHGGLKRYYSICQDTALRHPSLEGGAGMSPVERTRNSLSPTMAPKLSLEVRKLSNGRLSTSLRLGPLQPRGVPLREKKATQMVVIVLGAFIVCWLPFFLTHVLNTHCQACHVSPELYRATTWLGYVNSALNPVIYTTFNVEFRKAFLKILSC

SMILES: CCCN(CCN1CCN(c2ccccc2)CC1)[C@H]1CCc2c(O)cccc2C1 [(−)-7]
difference in inhibition constants between enantiomers, D2L receptor (dopamine D2L receptor; (−)-7 versus its enantiomer (+)-7): ~ 9 fold

Ki (dopamine D3 receptor): 14.9 ± 4.3 nM
SMILES: Oc1cccc2c1CC[C@H]1[C@H]2CCCN1CCN1CCN(c2ccccc2)CC1 (racemic) [(±)-8, (±)-trans-4-(2-(4-Phenylpiperazin-1-yl)ethyl)-1,2,3,4,4a,5,6,10b-octahydrobenzo[f]-quinolin-7-ol]

gain in affinity for D2 receptor (dopamine D2L receptor; [1]): ~ 9 fold
gain in affinity for D3 receptor (dopamine D3 receptor; [1]): ~ 3 fold
SMILES: Oc1ccc2c(c1)C[C@H]1[C@@H](CCCN1CCCCN1CCN(c3ccccc3)CC1)C2 (racemic) [(±)-35c, (±)-trans-1-[4-(4-Phenylpiperazin-1-yl)butyl]-1,2,3,4,4a,5,10,10a-octahydrobenzo-[g]quinolin-8-ol]
